Measurements from patent publication EP4763837A1, “PHOTOCHROMIC COMPOUND, CURABLE COMPOSITION, OPTICAL ARTICLE, LENS, AND EYEGLASSES” (TOKUYAMA CORPORATION, priority 2023, dated 2025).
Values joined by “and” are separate entries in the source; they are usually repeats but may differ in a detail not shown here. Equal entries are not always repeated.

Legend:
[1] = Photochromic property of photochromic laminate made by coating method; assay type: physicochemical; details: for Residual ratio / Color developing density at 23°C: laminate by coating method; for Residual ratio: A96/A0 x 100 after 96 hours accelerated degradation, xenon weather meter X25; for Color developing density at 23°C: absorbance difference after 240 seconds irradiation at the maximum absorption wavelength of the same line
From the text: First, the photochromic compound obtained in Example 1, a photoinitiator, and a polymerizable compound were mixed to obtain a curable composition.
The polymerizable compound was a combination of the following radical polymerizable monomers:
Polyethylene glycol dimethacrylate (average molecular weight: 736): 42 parts by mass • Polyethylene glycol dimethacrylate (average molecular weight: 536): 12 parts by mass • Trimethylolpropane methacrylate: 38 parts by mass γ-Methacryloyloxypropyltrimethoxysilane: 2 parts by mass Glycidyl methacrylate: 1 part by mass.
Note that, in the curable composition, the photochromic compound was added in an amount of 0.25 mmol taking a total amount of the radical polymerizable monomers as 100 g.
Phenylbis(2,4,6-trimethylbenzoyl)phosphine oxide (photoinitiator: Omnirad 819): 0.3 parts by mass Ethylene bis(oxyethylene) bis[3-(5-tert-butyl-4-hydroxy-m-tolyl) propionate] (stabilizer, Irganox 245): 1 part by mass Bis(1,2,2,6,6-pentamethyl-4-piperidyl)sebacate: 3 parts by mass Leveling agent (L-7001) manufactured by DuPont Toray Specialty Materials K.K.: 0.1 parts by mass.
Using this curable composition, a photochromic laminate was obtained by a lamination method including polymerization as follows.
First, a thiourethane plastic lens with a center thickness of 2 mm and a refractive index of 1.60 was prepared as an optical substrate. Note that, the thiourethane plastic lens had been alkaline-etched in a 10% sodium hydroxide aqueous solution at 50°C for 5 minutes in advance, and then thoroughly washed with distilled water.
A spin coater (1H-DX2, manufactured by MIKASA CO., LTD) was used to coat a surface of the above-mentioned plastic lens with a moisture-curing primer (product name: TR-SC-P, manufactured by Tokuyama Corporation) at a rotation speed of 70 rpm for 15 seconds, followed by 1000 rpm for 10 seconds. Then, about 2 g of the photochromic curable composition obtained above was spin-coated at a rotation speed of 60 rpm for 40 seconds, followed by 600 rpm for 10 to 20 seconds so as to achieve a photochromic coating layer with a thickness of 40 µm.
The lens of which surface had been coated with the photochromic curable composition (photochromic coating layer) was irradiated with light for 90 seconds in a nitrogen gas atmosphere using a metal halide lamp with an output of 200 mW/cm^2 to cure the coating. The resultant was then further heated at 110°C for 1 hour to produce a photochromic laminate with a photochromic layer.
Photochromic laminates were produced using the photochromic compounds obtained in Examples 2 to 20 in the same manner as in Example 21.
Photochromic laminates were obtained using photochromic compounds represented by Formulae (A) to (D) below in the same manner as in Example 21. [drawing 89] [drawing 90] [drawing 91] [drawing 92] [drawing 93]
The resulting photochromic laminates were evaluated by the below-mentioned methods. • (1) Photochromic property • [1] Maximum absorption wavelength (λmax): This is the maximum absorption wavelength after color development determined by a spectrophotometer manufactured by Otsuka Electronics Co., Ltd. (instantaneous multichannel photo detector MCPD3000) and was used as an index of a color tone upon color development. • [2] Color developing density at 23°C (A23): This is a difference between an absorbance {ε(240)} after irradiation with light at 23°C for 240 seconds and an absorbance ε(0) when not irradiated with light at the maximum absorption wavelength and was used as an index of a color developing density. The higher this value is, the better a photochromic property is. • [3] Color fading half-life at 23°C [τ1/2 (sec).)]: This is a period of time taken by an absorbance at the maximum absorption wavelength of a sample to decrease to 1/2 of {ε(240)-ε(0)} when irradiation is stopped after irradiation with light at 23°C for 240 seconds, and was used as an index of a color fading rate. The shorter this period of time is, the faster the color fading rate is. • [4] […]

[2] = Solubility of photochromic compound in polymerizable compounds; assay type: physicochemical; design: key: 1: No haze is seen when checked under transmission of light, and the sample is completely dissolved.; 2: A very thin haze is seen to the extent that it can be seen under transmission of light.; 3: A thin haze that can be seen under transmission of light is seen.; 4: A haze can be seen even without transmission of light; details: 35 µmol/g in radical polymerizable compound composition of Example 21, 65 to 70°C; for Dissolution for 15 min / Dissolution for 30 min / Dissolution for 45 min: stirring and ultrasonic irradiation; for Dissolution for 1 hour: head reads 60 min in Tables 8 to 14
Protocol: The photochromic compounds according to Examples and Comparative examples shown in Table 5 were evaluated for solubility in polymerizable compounds.
Specifically, a sample was prepared by adding each of the photochromic compounds to the composition, which consisted of a radical polymerizable compound, among the curable compositions used in Example 21.
Note that, this test was performed using "YOKAI-KUN USS-1" manufactured by NIHONSEIKI KAISHA LTD. under the following conditions: • Dissolution temperature: 65 to 70°C • Stirring condition: Stirring dial of 5. Ultrasonic irradiation condition: Irradiation interval of 3 sec.
Dissolution was checked every 15 minutes up to 1 hour later, the sample was visually checked by transmitting light through the sample, and a degree of dissolution was evaluated according to the following four evaluation criteria.
• 1: No haze is seen when checked under transmission of light, and the sample is completely dissolved. • 2: A very thin haze is seen to the extent that it can be seen under transmission of light. • 3: A thin haze that can be seen under transmission of light is seen. • 4: A haze can be seen even without transmission of light.
A shorter time required for the evaluation result to be 1 means higher solubility.

With CCCCCCC1(C)c2cc(OC(F)(F)F)ccc2-c2c1c1c(c3cc(OC)ccc23)OC(c2ccc(OC)cc2)(c2ccc(OC)cc2)C=C1 (stereo not shown) [Formula (90-1)] the Residual ratio [1] was 64%, the “Dissolution for 15 min” value [2] was 3 and the “Dissolution for 30 min” value [2] was 2. The “Dissolution for 45 min” value [2] was 1 and the “Dissolution for 1 hour” value [2] was 1.

With CCCC1(CC)c2cc(C)ccc2-c2c1c1c(c3cc(OC)c(-c4ccc(N5CCOCC5)cc4)cc23)OC(c2ccc(OC)cc2)(c2ccc(N3CCOCC3)cc2)C=C1 (stereo not shown) [Formula (79-2)] the “Color fading half-life at 23°C” value [1] was 1.3 min, the “Dissolution for 15 min” value [2] was 3 and the “Dissolution for 30 min” value [2] was 2. For the same compound, the “Dissolution for 45 min” value [2] was 1 and the “Dissolution for 1 hour” value [2] was 1.

With CCCCC1(CC)c2cc(OC)ccc2-c2c1c1c(c3cc(OC)c(Sc4c(C)cccc4C)cc23)OC(c2ccc(OC)cc2)(c2ccc(N3CCOCC3)cc2)C=C1 (stereo not shown) [Formula (77-1)] the Residual ratio [1] was 67%, the “Dissolution for 15 min” value [2] was 3 and the “Dissolution for 30 min” value [2] was 3. The “Dissolution for 45 min” value [2] was 1 and the “Dissolution for 1 hour” value [2] was 1.

In the case of CCCCC1(C(C)CC)c2ccccc2-c2c1c1c(c3cc(OC)c(N4CCOCC4)cc23)OC(c2ccc(OC)cc2)(c2ccc(OC)cc2)C=C1 (stereo not shown) [Formula (20-1)], the Residual ratio [1] is reported as 48% and 44%, the “Dissolution for 15 min” value [2] is reported as 3 and the “Dissolution for 30 min” value [2] is reported as 2. The “Dissolution for 45 min” value [2] was 1 and the “Dissolution for 1 hour” value [2] was 1.

In the case of CCCCC1(C)c2cc(N(C)c3ccccc3)ccc2-c2c1c1c(c3cc(OC)c(OC)cc23)OC(c2ccc(OC)cc2)(c2ccc(OCCC)cc2)C=C1 (stereo not shown) [Formula (73-2)], the Residual ratio [1] is reported as 62%, the “Dissolution for 15 min” value [2] is reported as 3 and the “Dissolution for 30 min” value [2] is reported as 3. The “Dissolution for 45 min” value [2] was 2 and the “Dissolution for 1 hour” value [2] was 1.

For CCC1(C)c2cc(OC)ccc2-c2c1c1c(c3cc(OC)c(Sc4c(C)cccc4C)cc23)OC(c2ccc(OC)cc2)(c2ccc(N3CCOCC3)cc2)C=C1 (stereo not shown) [Formula (74-2)], the “Color fading half-life at 23°C” value [1] was 1.5 min, the Residual ratio [1] was 64% and the “Dissolution for 15 min” value [2] was 4. For the same compound, the “Dissolution for 30 min” value [2] was 3, the “Dissolution for 45 min” value [2] was 2 and the “Dissolution for 1 hour” value [2] was 1.

With CCCC1(CC)c2cc(OC)ccc2-c2c1c1c(c3cc(OC)ccc23)OC(c2ccc(OC)cc2)(c2ccc(N3CCOCC3)cc2)C=C1 (stereo not shown) [Formula (91-1)] the “Color fading half-life at 23°C” value [1] was 1.25 min, the Residual ratio [1] was 57% and the “Dissolution for 15 min” value [2] was 4. The “Dissolution for 30 min” value [2] was 3, the “Dissolution for 45 min” value [2] was 1 and the “Dissolution for 1 hour” value [2] was 1.

In the case of CCCCC1(CC)c2ccccc2-c2c1c1c(c3cc(OC)c(N(C)c4ccccc4)cc23)OC(c2ccc(OC)cc2)(c2ccc(OC)cc2)C=C1 (stereo not shown) [Formula (80-2)], the “Color fading half-life at 23°C” value [1] is reported as 1.17 min, the Residual ratio [1] is reported as 79% and the “Color developing density at 23°C” value [1] is reported as 1.09 -. The “Dissolution for 15 min” value [2] was 3, the “Dissolution for 30 min” value [2] was 2 and the “Dissolution for 45 min” value [2] was 1. For the same compound, the “Dissolution for 1 hour” value [2] was 1.

In the case of CCCOc1ccc(C2(c3ccc(OC)cc3)C=Cc3c4c(c5cc(OC)c(OC)cc5c3O2)-c2ccc(N(C)c3ccccc3)cc2C4(CC)CCC)cc1 (stereo not shown) [Formula (87-1)], the “Color fading half-life at 23°C” value [1] is reported as 2.65 min, the Residual ratio [1] is reported as 64% and the “Dissolution for 15 min” value [2] is reported as 3. The “Dissolution for 30 min” value [2] was 2, the “Dissolution for 45 min” value [2] was 1 and the “Dissolution for 1 hour” value [2] was 1.

With CCC1(OCCOCCO[Si](C)(C)CC[Si](O[Si](C)(C)C)(O[Si](C)(C)C)O[Si](C)(C)C)c2ccccc2-c2c1c1c(c3cc(OC)c(N4CCOCC4)cc23)OC(c2ccc(OC)cc2)(c2ccc(OC)cc2)C=C1 (stereo not shown) [Formula (C), reference compound] the Residual ratio [1] was 34% and 36%, the “Color developing density at 23°C” value [1] was 1.27 - and 0.70 - and the “Dissolution for 15 min” value [2] was 2. The “Dissolution for 30 min” value [2] was 1, the “Dissolution for 45 min” value [2] was 1 and the “Dissolution for 1 hour” value [2] was 1.

With CCCC1(CC)c2ccccc2-c2c1c1c(c3cc(OC)c(-c4c(OC)cc(OC)cc4OC)cc23)OC(c2ccc(OC)cc2)(c2ccc(N(c3ccccc3)c3ccccc3)cc2)C=C1 (stereo not shown) [Formula (78-2)] the Residual ratio [1] was 64%, the “Dissolution for 15 min” value [2] was 3 and the “Dissolution for 30 min” value [2] was 2. For the same compound, the “Dissolution for 45 min” value [2] was 1 and the “Dissolution for 1 hour” value [2] was 1.

In the case of CCCCC1(CC)c2ccccc2-c2c1c1c(c3cc(OC)c(-c4ccc(N(c5ccccc5)c5ccccc5)cc4)cc23)OC(c2ccc(N(C)c3ccccc3)cc2)(c2ccc(OCCC)c(F)c2)C=C1 (stereo not shown) [Formula (76-6)], the “Color fading half-life at 23°C” value [1] is reported as 1.17 min and the Residual ratio [1] is reported as 68%.

For COc1ccc(C2(c3ccc(OC)cc3)C=Cc3c4c(c5cc(N6CCOCC6)c(OC)cc5c3O2)-c2ccccc2C42CCCCCCC2)cc1 [Formula (D), reference compound], the “Color fading half-life at 23°C” value [1] was 3.13 min, the Residual ratio [1] was 51% and 53% and the “Color developing density at 23°C” value [1] was 1.61 - and 0.89 -. For the same compound, the “Dissolution for 15 min” value [2] was 4, the “Dissolution for 30 min” value [2] was 3 and the “Dissolution for 45 min” value [2] was 2. The “Dissolution for 1 hour” value [2] was 1.
